Assay results taken from patent publication US11173158B2, “Medicinal agent and beverage/food for preventing cerebral dysfunction and improving same” (PTC Therapeutics MP, Inc., priority 2010, dated 2021).
“Also recorded” adds a separate entry of the source.

Experiments:
[1] = system: PC12 cells; experiment: Total amount of biopterin in PC12 cells after addition to culture medium; assay type: cell-based; settings: 100 μM added, 0-180 min, FIG. 2A
Method: (§1) In Example 1, where PC12 cells and RBL2H3 cells were used as aromatic monoamine synthesizing cells and sepiapterin was added to a culture medium, evaluation was made for a total amount of biopterin in the cells (a total amount of tetrahydrobiopterin, and its oxidant, dihydrobiopterin and biopterin, the same shall apply hereinafter).
(§2) The PC12 cells are cultured cells having properties of a neuron and it is known that they synthesize dopamine, noradrenaline and adrenaline, with tetrahydrobiopterin used as a coenzyme. The RBL2H3 cells are cultured cells having properties of a mast cell and it is known that they synthesize serotonin, with tetrahydrobiopterin used as a coenzyme. […]
(§3) A total amount of biopterin in the cells was measured by using a system of high performance liquid chromatography/fluorescence detection (HPLC/FD) according to the Fukusima-Nixon method (refer to Non-Patent Document 8).
(§4) A principle of the Fukushima-Nixon method is as follows. Upon oxidation with iodine under strong acid or alkaline conditions, tetrahydrobiopterin is quantitatively oxidized into oxidized-form biopterin under acid conditions and oxidized into oxidized-form pterin in which a side chain in the 6th-class position is removed under alkaline conditions. […] The oxidized-form biopterin and the oxidized-form pterin have strong natural fluorescent characteristics (excitation: 350 nm, fluorescence: 450 nm). […]

[2] = system: RBL2H3 cells; experiment: Total amount of biopterin in RBL2H3 cells after addition to culture medium; assay type: cell-based; settings: 100 μM added, 0-180 min, FIG. 2B
Method: as §1, §2, §3, §4

[3] = system: SD rats; experiment: Amounts of tetrahydrobiopterin, serotonin and 5-hydroxyindoleacetic acid in rat brain after oral administration; assay type: in vivo; settings: 0-8 hours after administration; for amount of tetrahydrobiopterin in the brain: FIG. 5A
Method: In Example 4, rats were used to measure amounts of tetrahydrobiopterin, serotonin and 5-hydroxyindoleacetic acid in the brain on administration of sepiapterin. Rats used were SD rats (7-8 week old, males) purchased from Japan SLC, Inc. The rats were kept in a dark place for 12 hours and in a light place for 12 hours and fed ad libitum with a diet (“MM-3” made by Funabashi Farm Co., Ltd.) and sterilized tap water as drinking water. Sepiapterin or tetrahydrobiopterin was dissolved in 10 mM hydrochloric acid, the resultant of which was orally administered to the rats (n=6) under diethylether anesthesia. After 1, 1.5, 2, 3, 4, 6 and 8 hours, the brains were excised under pentobarbital sodium anesthesia (pentobarbital was intraperitoneally administered at 40 mg/kg five minutes before), and the brain was divided into two portions at the median line to obtain left and right brain samples. Rats not treated with sepiapterin or tetrahydrobiopterin were used as samples at 0 hours after administration according to the same procedures. […] Amounts of serotonin and 5-hydroxyindoleacetic acid in the brain were calculated by adding 3.5 times the volume of 1.43% ascorbic acid-containing 100 mM hydrochloric acid which contains N-methyl serotonin as an internal standard to a right brain sample, homogenizing brain tissues, adding […] (final concentration of 5.5%) thereto, ice-cooling the resultant for removing protein and treating a supernatant thereof in a system of high performance liquid chromatography/fluorescence detection (HPLC/FD), (refer to Non-Patent Document 9). In the high performance liquid chromatography, as with Example 1, etc., “Fine-SIL-C18-5T (made by JASCO Corporation)” was used as a column. […] In the system of high performance liquid chromatography/fluorescence detection (HPLC/FD), 5-hydroxytryptophan (5HTP), serotonin, N-methyl serotonin, tryptophan and 5-hydroxyindoleacetic acid are eluted in the above order, thus making it possible to determine quantitatively these substances at the same time.

[4] = system: hph-1 mice; experiment: Amount of serotonin in brain of hph-1 mice after oral administration; assay type: in vivo, mouse; settings: oral 20 mg/kg twice (2 h apart), brain 6 hours after first administration, FIG. 6
Method: The mice used were those of “hph-1” which were provided by Dr. […] (Institute of Metabolic Disease, Baylor University Medical Center, Dallas, Tex. 75226, USA). The mice are characterized as being defective in biosynthesis functions of tetrahydrobiopterin, with the level of tetrahydrobiopterin in the brain being from 40 to 50% as compared with ordinary mice. The mice were bred in a dark place for 12 hours and also in a light place for 12 hours and fed ad libitum with a diet (“MM-3” made by Funabashi Farm Co., Ltd.) and sterilized tap water as drinking water. An amount of serotonin was measured by dissolving sepiapterin or tetrahydrobiopterin in 0.01 M hydrochloric acid, thereafter administering orally each of the resultants at 20 mg/kg to the mice, giving another oral administration at the same dose two hours thereafter, and excised the brains from each mouse six hours after the first administration (n=7 in a group treated with sepiapterin, and n=8 in a group treated with tetrahydrobiopterin). […] In a control group, measurement was made similarly by orally administering 0.01M hydrochloric acid.

[5] = system: NZB mice; experiment: Forced swim test in mice; assay type: in vivo, mouse; settings: intraperitoneal single dose 10 mg/kg, test after 40 minutes, five-minute swimming, FIG. 7
Method: In Example 6, the mice were subjected to a forced swim test after administration of sepiapterin. The forced swim test of the mice is a test method for evaluating antidepressant effects, and length of “immobile” time is a criterion of depression. Evaluation is made in such a manner that the shorter the “immobile” time is, the greater the antidepressant effects are. The mice used were NZB mice purchased from. Japan SLC, Inc (7-week old males). The mice were maintained in a dark place for 12 hours and in a light place for 12 hours and fed ad libitum with a diet (“MM-3” made by Funabashi Farm Co., Ltd.) and sterilized tap water as drinking water, except when they were constrained in an experiment. The mice are characterized in that they are more likely to develop an auto-immune disease with advancement of age. […] The mice which had been subjected to 15-minute preliminary swimming without administration of a drug, etc., on the previous day were used in the experiment. The mice were intraperitoneally administered tetrahydrobiopterin (n=7) or sepiapterin (n=5) at a single dose of 10 mg/kg and subjected to a forced swim test after 40 minutes to measure “immobile” time. The test was conducted under dim light by using a 15 cm-across and 15 cm-deep water tank kept at a temperature of 22° C. “Immobile” time was measured by calculating an added value of “immobile” time during five-minute-swimming. […]

SMILES: C[C@H](O)C(=O)C1=Nc2c(nc(N)[nH]c2=O)NC1 [sepiapterin, 7,8-Dihydro-6-[(S)-2-hydroxy-1-oxopropyl]-pterin]
- change in the total amount of biopterin in the cells [1]: remarkable increase
- change in the total amount of biopterin in the cells [2]: remarkable increase
- amount of tetrahydrobiopterin in the brain [3]: significant increase
- amount of serotonin in the brain ([3]; FIG. 5B): significantly increased
- amount of serotonin in the brain [4]: significant increase
- "immobile" time in forced swim test [5]: significantly short

SMILES: C[C@H](O)[C@H](O)[C@H]1CNc2nc(N)[nH]c(=O)c2N1 [tetrahydrobiopterin, Tetrahydrobiopterin]
- change in the total amount of biopterin in the cells [1]: substantially no change; also recorded: slight increase
- change in the total amount of biopterin in the cells [2]: substantially no change; also recorded: slight increase
- amount of tetrahydrobiopterin in the brain [3]: did not show an increase
